Test results taken from patent publication US8969570B2, “Beta-lactamase inhibitors” (priority 2012, dated 2015).
Where a name gives a salt, the structure may show the parent alone.

Assays:
Format in all cases: cell-based
Settings in all cases: β-lactam (CXA-101/Ceftolozane or ceftazidime) fixed at 4 μg/mL; compared with Avibactam (comparator compound CCC)
[1] = system: bacterial strains that express KPC β-lactamase (isogenic E. coli strain KPC-2); experiment: Synergy MIC (sMIC) assay, KPC strain
From the text: (§1) A set of β-lactamase expressing isogenic E. coli strains was constructed by cloning a β-lactamase gene into a customized derivative of pBR322 (GenBank Accession Number J01749) and transforming the engineered plasmids into E. coli. The NdeI restriction site within the plasmid backbone of pBR322 was removed to generate pBR322 ΔNdeI. The pBR322 ΔNdeI vector itself, minus the blaTEM-1 gene, was amplified using two primers: (1) pBR-Pbla 5′-[…]-3, SEQ ID 1, a primer with an engineered NdeI restriction site at the 3′ end of the blaTEM-1 promoter and (2) pBR-vec-1 5′-[…]-3′, SEQ ID 2, a primer with an engineered BamHI restriction site at the 3′ end of the blaTEM-1 open reading frame. The chloramphenicol resistance gene, cat, was generated by PCR amplification from pKD3 (GenBank Accession Number AY048742) using primers with an engineered NdeI restriction site at the 5′ end (Pbla-cat 5′-[…]-3′, SEQ ID 3) and an engineered BamHI restriction site at the 3′ end (Vec-1-cat 5′-[…]-3′, SEQ ID 4) of the resistance gene. The two PCR products, pBR322 ΔNdeI and cat were ligated together generating pBR-CBST (pBR322 ΔNdeI ΔTEM-1::cat Seq. ID 5) which retains both the pBR322 tetracycline resistance cassette, tetA, and the plasmid origin of replication but the blaTEM-1 gene was replaced by the cat gene.
(§2) Using this engineering strategy a number of plasmids producing β-lactamase genes from different classes (see below) were generated using synthetic genes with an engineered NdeI restriction site at the 5′ end and BamHI restriction site at the 3′ end of each gene (GenScript). Both the synthetic β-lactamase genes and cat gene were ligated into the NdeI/BamHI sites of the pBR322 ΔNdeI PCR product and transformed into electrocompetent E. coli ElectroMax DH10B (Invitrogen/Life Technologies). E. coli DH10B harboring the recombinant plasmids were selected on LB agar (supplemented with 25 μg/mL tetracycline) and single isolated colonies were then inoculated into 5 mL LB media (supplemented with 25 μg/mL tetracycline), and incubated at 37° C. with aeration (250 rpm) for 18 hrs. The cultures were frozen back at −80° C. in 20% glycerol. The DNA sequence of the cloned β-lactamase genes was confirmed. The β-lactamase gene expression in the recombinant E. coli strains was driven by the blaTEM-1 promoter in the pBR-CBST plasmid and was characterized by MIC profiling of the E. coli recombinant strains against comparator β-lactam/BLI combinations in broth microdilution assay.
(§3) The synergy MIC (sMIC) assay determines the concentration of the BLI required to potentiate the activity of a fixed concentration of a β-lactam antibiotic against β-lactamase producing bacterial strains. The experimental protocol was performed according to Clinical and Laboratory Standards Institute (CLSI) guidelines with modifications as described below (CLSI guidelines can be derived from the CLSI document M07-A9 published in January 2012: “Methods for Dilution Antimicrobial Susceptibility Tests for Bacteria That Grow Aerobically; Approved Standard-Ninth Edition”). The assay is set-up by serially diluting the BLI across 11 of the 12 wells in each row of a 96-well broth microdilution assay plate, adding the β-lactam at a fixed concentration to all wells in the assay plate, inoculating the assay plate with bacterial strains, and determining the lowest concentration of BLI required to inhibit overnight bacterial growth.
(§4) To prepare for MIC testing, frozen glycerol stocks of laboratory engineered, isogenic E. coli strains, which contain cloned β-lactamase expressing plasmids were used to streak for isolated colonies on rich, selective LB agar supplemented with 25 μg/mL tetracycline to maintain the plasmid. All strains were incubated at 37° C. for 18-24 hrs.
(§5) On the day of testing, primary cultures were started by scraping off 5-10 colonies from the tetracycline supplemented LB plates containing engineered strains. […]

[2] = system: bacterial strains that express SHV-12 β-lactamase (isogenic E. coli strain); experiment: Synergy MIC (sMIC) assay, SHV-12 strain
From the text: as §1, §2, §3, §4, §5

[3] = system: bacterial strains that express OXA-15 β-lactamase (isogenic E. coli strain); experiment: Synergy MIC (sMIC) assay, OXA-15 strain
From the text: as §1, §2, §3, §4, §5

[4] = system: bacterial strains that express CTX-M-15 β-lactamase (isogenic E. coli strain); experiment: Synergy MIC (sMIC) assay, CTX-M-15 strain
From the text: as §1, with “cat gene. […]” for “cat gene.”

[5] = system: bacterial strains that express P99 β-lactamase (isogenic E. coli strain P99 AmpC); experiment: Synergy MIC (sMIC) assay, P99 AmpC strain
From the text: as §1, §2, §3, §4, §5

| SMILES | activity against bacterial strains that express KPC β-lactamase relative to Avibactam (sMIC) [1] | activity against bacterial strains that express SHV-12 β-lactamase relative to Avibactam (sMIC) [2] | activity against bacterial strains that express OXA-15 β-lactamase relative to Avibactam (sMIC) [3] | activity against bacterial strains that express CTX-M-15 β-lactamase relative to Avibactam (sMIC) [4] | activity against bacterial strains that express P99 β-lactamase relative to Avibactam (sMIC) [5] |
| --- | --- | --- | --- | --- | --- |
| Cc1nnc([C@@H]2CC[C@@H]3CN2C(=O)N3OS(=O)(=O)O)o1 [Compound 200, (2S,5R)-2-(5-methyl-1,3,4-oxadiazol-2-yl)-7-oxo-1,6-diazabicyclo[3.2.1]octan-6-yl hydrogen sulfate] | as active or more active than Avibactam | as active as Avibactam | more active than Avibactam |  |  |
| O=C1N2C[C@@H](CC[C@H]2c2nncs2)N1OS(=O)(=O)O [Compound 300, (2S,5R)-7-oxo-2-(1,3,4-thiadiazol-2-yl)-1,6-diazabicyclo[3.2.1]octan-6-yl hydrogen sulfate] | as active or more active than Avibactam | as active as Avibactam | more active than Avibactam | as active as Avibactam | as active as Avibactam |
| CN1CCN(c2nnc([C@@H]3CC[C@@H]4CN3C(=O)N4OS(=O)(=O)O)o2)CC1 [Compound 205, (2S,5R)-2-(5-(4-methylpiperazin-1-yl)-1,3,4-oxadiazol-2-yl)-7-oxo-1,6-diazabicyclo[3.2.1]octan-6-yl hydrogen sulfate] | as active or more active than Avibactam |  | more active than Avibactam |  |  |
| CN1CCC(c2nnc([C@@H]3CC[C@@H]4CN3C(=O)N4OS(=O)(=O)O)o2)CC1 [Compound 204, (2S,5R)-2-(5-(1-methylpiperidin-4-yl)-1,3,4-oxadiazol-2-yl)-7-oxo-1,6-diazabicyclo[3.2.1]octan-6-yl hydrogen sulfate] | as active or more active than Avibactam |  | more active than Avibactam |  | as active as Avibactam |
| N#Cc1cc([C@@H]2CC[C@@H]3CN2C(=O)N3OS(=O)(=O)O)no1 [Compound 102, (2S,5R)-2-(5-cyanoisoxazol-3-yl)-7-oxo-1,6-diazabicyclo[3.2.1]octan-6-yl hydrogen sulfate] | as active or more active than Avibactam |  |  |  |  |
| CCc1nnc([C@@H]2CC[C@@H]3CN2C(=O)N3OS(=O)(=O)O)o1 [Compound 201, (2S,5R)-2-(5-ethyl-1,3,4-oxadiazol-2-yl)-7-oxo-1,6-diazabicyclo[3.2.1]octan-6-yl hydrogen sulfate] | as active or more active than Avibactam |  | more active than Avibactam |  |  |
| CNc1nnc([C@@H]2CC[C@@H]3CN2C(=O)N3OS(=O)(=O)O)o1 [Compound 203, (2S,5R)-2-(5-(methylamino)-1,3,4-oxadiazol-2-yl)-7-oxo-1,6-diazabicyclo[3.2.1]octan-6-yl hydrogen sulfate] | as active or more active than Avibactam |  |  |  |  |
| CCOC(=O)c1noc([C@@H]2CC[C@@H]3CN2C(=O)N3OS(=O)(=O)O)n1 [Compound 402, ethyl 5-((2S,5R)-7-oxo-6-(sulfooxy)-1,6-diazabicyclo[3.2.1]octan-2-yl)-1,2,4-oxadiazole-3-carboxylate] |  | as active as Avibactam |  |  |  |
| O=C1N2C[C@@H](CC[C@H]2c2nnc(N3CCNCC3)s2)N1OS(=O)(=O)O [Compound 302, (2S,5R)-7-oxo-2-(5-(piperazin-1-yl)-1,3,4-thiadiazol-2-yl)-1,6-diazabicyclo[3.2.1]octan-6-yl hydrogen sulfate] | as active or more active than Avibactam | as active as Avibactam | more active than Avibactam |  |  |
| O=C1N2C[C@@H](CC[C@H]2c2ccon2)N1OS(=O)(=O)O [Compound 101, (2S,5R)-2-(isoxazol-3-yl)-7-oxo-1,6-diazabicyclo[3.2.1]octan-6-yl hydrogen sulfate] | as active or more active than Avibactam |  |  | as active as Avibactam | as active as Avibactam |
| NC(=O)c1cc([C@@H]2CC[C@@H]3CN2C(=O)N3OS(=O)(=O)O)no1 [Compound 103, (2S,5R)-2-(5-carbamoylisoxazol-3-yl)-7-oxo-1,6-diazabicyclo[3.2.1]octan-6-yl hydrogen sulfate] | as active or more active than Avibactam | as active as Avibactam |  |  |  |
| O=C1N2C[C@@H](CC[C@H]2c2ncns2)N1OS(=O)(=O)O [Compound 500, (2S,5R)-7-oxo-2-(1,2,4-thiadiazol-5-yl)-1,6-diazabicyclo[3.2.1]octan-6-yl hydrogen sulfate] |  |  |  |  | as active as Avibactam |
| NCc1nnc([C@@H]2CC[C@@H]3CN2C(=O)N3OS(=O)(=O)O)s1 [Compound 301, (2S,5R)-2-(5-(aminomethyl)-1,3,4-thiadiazol-2-yl)-7-oxo-1,6-diazabicyclo[3.2.1]octan-6-yl hydrogen sulfate] | as active or more active than Avibactam | as active as Avibactam | more active than Avibactam |  | as active as Avibactam |
| O=C1N2C[C@@H](CC[C@H]2c2nnc(C3CNCCO3)o2)N1OS(=O)(=O)O (stereo partly drawn) [Compound 206, (2S,5R)-2-(5-(morpholin-2-yl)-1,3,4-oxadiazol-2-yl)-7-oxo-1,6-diazabicyclo[3.2.1]octan-6-yl hydrogen sulfate] | as active or more active than Avibactam |  | more active than Avibactam |  | as active as Avibactam |
| NC(=O)c1noc([C@@H]2CC[C@@H]3CN2C(=O)N3OS(=O)(=O)O)n1 [Compound 401, (2S,5R)-2-(3-carbamoyl-1,2,4-oxadiazol-5-yl)-7-oxo-1,6-diazabicyclo[3.2.1]octan-6-yl hydrogen sulfate] | as active or more active than Avibactam | as active as Avibactam |  |  |  |
